Several values for one entry are separate records, joined by “and”; a condition that tells them apart may be missing. Identical values can stand only once. Inconclusive results and toxic doses are left out. Rule for the calls: active = survival T/C of 150% or more; inactive = T/C below 125% in these data.
Test system: CD2F1 mice, L1210 leukemia ip, survival T/C
Assay: NCI In Vivo Anticancer Drug Screen. Data for tumor model L1210 Leukemia (intraperitoneal) in CD2F1 (CDF1) mice
Details: higher = longer survival
Procedure, shortened: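 Implant tumor; dose compound or vehicle; measure endpoint in both groups; report treated divided by control.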

[1] = endpoint: mean survival time, dose: 100.0 mg/kg/injection, schedule: Q01DX001 (ip), vehicle: saline with Tween-80
[2] = endpoint: mean survival time, dose: 200.0 mg/kg/injection, schedule: Q01DX001 (ip), vehicle: saline with Tween-80
[3] = endpoint: mean survival time, dose: 400.0 mg/kg/injection, schedule: Q01DX001 (ip), vehicle: saline with Tween-80
[4] = endpoint: mean survival time, dose: 100.0 mg/kg/injection, schedule: Q01DX009 (ip), vehicle: saline with Tween-80
[5] = endpoint: mean survival time, dose: 100.0 mg/kg/injection, schedule: Q04DX003 (ip), vehicle: saline with Tween-80
[6] = endpoint: mean survival time, dose: 200.0 mg/kg/injection, schedule: Q01DX009 (ip), vehicle: saline with Tween-80
[7] = endpoint: mean survival time, dose: 400.0 mg/kg/injection, schedule: Q01DX009 (ip), vehicle: saline with Tween-80
[8] = endpoint: mean survival time, dose: 200.0 mg/kg/injection, schedule: Q01DX009 (ip), vehicle: saline
[9] = endpoint: mean survival time, dose: 50.0 mg/kg/injection, schedule: Q04DX002 (ip), vehicle: saline with Tween-80
[10] = endpoint: mean survival time, dose: 100.0 mg/kg/injection, schedule: Q04DX002 (ip), vehicle: saline with Tween-80
[11] = endpoint: mean survival time, dose: 200.0 mg/kg/injection, schedule: Q04DX002 (ip), vehicle: saline with Tween-80

Measured: T/C

O=C(NC(=S)c1ccccc1)Nc1ccc(Cl)cc1
inactive: [1] 90 % of control | [2] 94 % of control | [3] 94 % of control

Nc1nc(-c2cccc([N+](=O)[O-])c2)c(N=Nc2ccc([N+](=O)[O-])cc2)s1
inactive: [1] 93 % of control | [2] 95 % of control

CC(=O)CC(=O)Nc1cc(Cl)c(NC(=O)CC(C)=O)cc1Cl
inactive: endpoint: mean survival time, dose: 44.0 mg/kg/injection, schedule: Q04DX003 (ip), vehicle: saline with Tween-80 104 % of control | endpoint: mean survival time, dose: 66.0 mg/kg/injection, schedule: Q04DX003 (ip), vehicle: saline with Tween-80 96 % of control | [4] 97 % of control | [5] 98 % of control | endpoint: mean survival time, dose: 150.0 mg/kg/injection, schedule: Q04DX003 (ip), vehicle: saline with Tween-80 100 % of control | [6] 97 % of control | [7] 97 % of control

COc1ccc(/C=N\O)cc1OC
inactive: [5] 101 % of control | endpoint: mean survival time, dose: 200.0 mg/kg/injection, schedule: Q04DX003 (ip), vehicle: saline with Tween-80 98 % of control | endpoint: mean survival time, dose: 400.0 mg/kg/injection, schedule: Q04DX003 (ip), vehicle: saline with Tween-80 87 % of control

COc1ccc(C(O)(c2ccccc2)C(OC(=O)CCl)c2ccccc2)cc1 (stereo not given)
inactive: [2] 91 % of control | [3] 89 % of control

S=c1[nH]cc2cnccn12
inactive: endpoint: mean survival time, dose: 12.5 mg/kg/injection, schedule: Q01DX009 (ip), vehicle: saline with Tween-80 92 % of control and 103 % of control | endpoint: mean survival time, dose: 25.0 mg/kg/injection, schedule: Q01DX009 (ip), vehicle: saline with Tween-80 97 % of control and 100 % of control | endpoint: mean survival time, dose: 50.0 mg/kg/injection, schedule: Q01DX009 (ip), vehicle: saline with Tween-80 95 % of control and 105 % of control | [4] 93 % of control and 100 % of control | [6] 104 % of control | [7] 97 % of control

Cc1noc(C)c1CC1(c2ccccc2)CCCCC1=O (stereo not given)
inactive: endpoint: mean survival time, dose: 100.0 mg/kg/injection, schedule: Q01DX001 (ip), vehicle: Klucel (hydroxypropylcellulose) (HPC) 92 % of control | endpoint: mean survival time, dose: 200.0 mg/kg/injection, schedule: Q01DX001 (ip), vehicle: Klucel (hydroxypropylcellulose) (HPC) 92 % of control | endpoint: mean survival time, dose: 400.0 mg/kg/injection, schedule: Q01DX001 (ip), vehicle: Klucel (hydroxypropylcellulose) (HPC) 86 % of control

NC(=O)CCC(N)C(=O)O.[Cl-].[Cl-].[Cl-].[Cl-].[Pt+2] (stereo not given)
inactive: endpoint: mean survival time, dose: 12.5 mg/kg/injection, schedule: Q01DX009 (ip), vehicle: water 107 % of control | endpoint: mean survival time, dose: 25.0 mg/kg/injection, schedule: Q01DX009 (ip), vehicle: water 100 % of control | endpoint: mean survival time, dose: 25.0 mg/kg/injection, schedule: Q04DX003 (ip), vehicle: saline 111 % of control | endpoint: mean survival time, dose: 50.0 mg/kg/injection, schedule: Q04DX003 (ip), vehicle: saline 119 % of control

O=C(Cc1ccccc1)c1ccc(Cl)cc1
inactive: [1] 101 % of control | [2] 88 % of control | [3] 93 % of control

COC1OC(COC(C)=O)C(OC(C)=O)C(NC(=O)N(CCCl)N=O)C1OC(C)=O (stereo not given)
active: endpoint: mean survival time, dose: 13.0 mg/kg/injection, schedule: Q01DX001 (ip), vehicle: saline with Tween-80 240 % of control | endpoint: mean survival time, dose: 20.0 mg/kg/injection, schedule: Q01DX001 (ip), vehicle: saline with Tween-80 469 % of control | endpoint: mean survival time, dose: 30.0 mg/kg/injection, schedule: Q01DX001 (ip), vehicle: saline with Tween-80 535 % of control | endpoint: mean survival time, dose: 44.0 mg/kg/injection, schedule: Q01DX001 (ip), vehicle: saline with Tween-80 459 % of control | endpoint: mean survival time, dose: 67.0 mg/kg/injection, schedule: Q01DX001 (ip), vehicle: saline with Tween-80 245 % of control

O=c1oc(-c2ccc(Cl)cc2)nc2cc(Cl)ccc12
inactive: endpoint: mean survival time, dose: 25.0 mg/kg/injection, schedule: Q04DX003 (ip), vehicle: saline with Tween-80 93 % of control | endpoint: mean survival time, dose: 50.0 mg/kg/injection, schedule: Q04DX003 (ip), vehicle: saline with Tween-80 93 % of control | [5] 86 % of control and 89 % of control

O=C(O)CC(CC(=O)O)C(=O)O
inactive: endpoint: mean survival time, dose: 100.0 mg/kg/injection, schedule: Q04DX003 (ip), vehicle: saline 101 % of control | endpoint: mean survival time, dose: 200.0 mg/kg/injection, schedule: Q04DX003 (ip), vehicle: saline 103 % of control | endpoint: mean survival time, dose: 400.0 mg/kg/injection, schedule: Q04DX003 (ip), vehicle: saline 101 % of control

Oc1cccc(O)c1
inactive: endpoint: mean survival time, dose: 50.0 mg/kg/injection, schedule: Q01DX009 (ip), vehicle: saline 98 % of control | endpoint: mean survival time, dose: 100.0 mg/kg/injection, schedule: Q01DX009 (ip), vehicle: saline 95 % of control | [8] 101 % of control

O=C(O)CC(NC(=O)CP(=O)(O)O)C(=O)O (stereo not given)
inactive: endpoint: mean survival time, dose: 86.4 mg/kg/injection, schedule: Q01DX009 (ip), vehicle: saline 98 % of control | [8] 112 % of control | endpoint: mean survival time, dose: 225.0 mg/kg/injection, schedule: Q01DX009 (ip), vehicle: saline 116 % of control | endpoint: mean survival time, dose: 240.0 mg/kg/injection, schedule: Q01DX009 (ip), vehicle: saline 105 % of control | endpoint: mean survival time, dose: 250.0 mg/kg/injection, schedule: Q01DX009 (ip), vehicle: saline 115 % of control

CCOc1c[n+](C)c(C)s1
inactive: endpoint: mean survival time, dose: 50.0 mg/kg/injection, schedule: Q01DX001 (ip), vehicle: carboxymethylcellulose (CMC) 94 % of control | endpoint: mean survival time, dose: 100.0 mg/kg/injection, schedule: Q01DX001 (ip), vehicle: carboxymethylcellulose (CMC) 92 % of control | endpoint: mean survival time, dose: 200.0 mg/kg/injection, schedule: Q01DX001 (ip), vehicle: carboxymethylcellulose (CMC) 103 % of control

CC(C)(O)CCNc1ncnc2c1ncn2C1OC(CO)C(O)C1O (stereo not given)
inactive: endpoint: mean survival time, dose: 12.5 mg/kg/injection, schedule: Q01DX005 (ip), vehicle: water 101 % of control | endpoint: mean survival time, dose: 25.0 mg/kg/injection, schedule: Q01DX005 (ip), vehicle: water 95 % of control and 103 % of control | endpoint: mean survival time, dose: 50.0 mg/kg/injection, schedule: Q01DX005 (ip), vehicle: water 124 % of control and 103 % of control | endpoint: mean survival time, dose: 100.0 mg/kg/injection, schedule: Q01DX005 (ip), vehicle: water 108 % of control

CCC1(C)C(=O)CCC2C1CCC1(C)C(C(C)CCCC(C)C)CCC21 (stereo not given)
inactive: endpoint: mean survival time, dose: 100.0 mg/kg/injection, schedule: Q01DX001 (sc), vehicle: steriod suspending solution 101 % of control | endpoint: mean survival time, dose: 200.0 mg/kg/injection, schedule: Q01DX001 (sc), vehicle: steriod suspending solution 98 % of control | endpoint: mean survival time, dose: 400.0 mg/kg/injection, schedule: Q01DX001 (sc), vehicle: steriod suspending solution 118 % of control

COC(=O)c1ccoc1
inactive: endpoint: median survival time, dose: 12.5 mg/kg/injection, schedule: Q01DX009 (ip), vehicle: saline 98 % of control | endpoint: median survival time, dose: 25.0 mg/kg/injection, schedule: Q01DX009 (ip), vehicle: saline 100 % of control | endpoint: median survival time, dose: 50.0 mg/kg/injection, schedule: Q01DX009 (ip), vehicle: saline 100 % of control | endpoint: median survival time, dose: 100.0 mg/kg/injection, schedule: Q01DX009 (ip), vehicle: saline 104 % of control | endpoint: median survival time, dose: 200.0 mg/kg/injection, schedule: Q01DX009 (ip), vehicle: saline 105 % of control | endpoint: median survival time, dose: 400.0 mg/kg/injection, schedule: Q01DX009 (ip), vehicle: saline 114 % of control

NC(=O)C1(C(N)=O)CCCCC1
inactive: [9] 100 % of control | [10] 112 % of control | [11] 100 % of control

C1CCC2C[N-]CCC2C1.C1CCC2C[N-]CCC2C1.C1CCC2C[N-]CCC2C1.C1CCC2C[N-]CCC2C1.[Cl][Rh][Cl] (stereo not given)
inactive: endpoint: mean survival time, dose: 0.25 mg/kg/injection, schedule: Q01DX009 (ip), vehicle: saline 98 % of control | endpoint: mean survival time, dose: 0.5 mg/kg/injection, schedule: Q01DX009 (ip), vehicle: saline with Tween-80 92 % of control | endpoint: mean survival time, dose: 0.5 mg/kg/injection, schedule: Q01DX009 (ip), vehicle: saline 104 % of control | endpoint: mean survival time, dose: 1.0 mg/kg/injection, schedule: Q01DX009 (ip), vehicle: saline with Tween-80 96 % of control | endpoint: mean survival time, dose: 1.0 mg/kg/injection, schedule: Q01DX009 (ip), vehicle: saline 104 % of control | endpoint: mean survival time, dose: 2.0 mg/kg/injection, schedule: Q01DX009 (ip), vehicle: saline with Tween-80 96 % of control | endpoint: mean survival time, dose: 2.0 mg/kg/injection, schedule: Q01DX009 (ip), vehicle: saline 105 % of control | endpoint: mean survival time, dose: 4.0 mg/kg/injection, schedule: Q01DX009 (ip), vehicle: saline 113 % of control | endpoint: mean survival time, dose: 8.0 mg/kg/injection, schedule: Q01DX009 (ip), vehicle: saline 115 % of control

COc1cc[c-]cc1.[C-]#[O+].[C-]#[O+].[Fe+6].[c-]1[c-][c-][cH-][c-]1
inactive: [9] 102 % of control | [10] 102 % of control | [11] 97 % of control

O=C(O)c1c(F)c(F)c(-c2c(F)c(F)c(C(=O)O)c(C(=O)O)c2F)c(F)c1C(=O)O
inactive: [1] 95 % of control | [2] 96 % of control

From PubChem BioAssay AID256 (DTP/NCI, 2004)
